Biological target: bovine erythrocyte CA II (bCA-II) (Bos taurus, UniProt P00921)
Assay: In vitro carbonic anhydrase inhibition assay
Assay type: biochemical
Conditions: for % inhibition: bCA-II, substrate 4-NPA, 25 °C, pH 7.4, test concentration not given; for inhibition activity against bCA-II (in words): qualitative statement

bovine erythrocyte CA II (bCA-II), sequence (P00921 whole entry): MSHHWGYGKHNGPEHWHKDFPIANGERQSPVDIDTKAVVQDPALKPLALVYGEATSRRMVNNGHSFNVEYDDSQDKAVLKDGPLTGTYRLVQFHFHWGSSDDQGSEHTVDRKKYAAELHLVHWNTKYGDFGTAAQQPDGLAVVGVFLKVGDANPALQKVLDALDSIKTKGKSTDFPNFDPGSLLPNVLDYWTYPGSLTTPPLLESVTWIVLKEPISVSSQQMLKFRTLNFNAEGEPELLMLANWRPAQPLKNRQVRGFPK

IC50	% inhibition	inhibition activity against bCA-II (in words)	SMILES
13.3 ± 1.25 µM	89.1%		CCCSc1nc2ccccc2n1CC(=O)NN=Cc1cccc(OC)c1O [Compound 9, N′-(2-Hydroxy-3-methoxybenzylidene)-2-(2-(propylthio)-1H-benzo[d]imidazol-1-yl)acetohydrazide]
17.2 ± 1.24 µM	83.0%		CCCSc1nc2ccccc2n1CC(=O)NN=Cc1ccccc1 [Compound 10, N′-Benzylidene-2-(2-(propylthio)-1H-benzo[d]imidazol-1-yl)acetohydrazide]
	22.8%	inactive	CCCSc1nc2ccccc2n1CC(=O)NN=Cc1cccc(OC)c1 [Compound 11, N′-(3-Methoxybenzylidene)-2-(2-(propylthio)-1H-benzo[d]imidazol-1-yl)acetohydrazide]
14.6 ± 0.62 µM	91.7%		CCCSc1nc2ccccc2n1CC(=O)NN=Cc1cccc2ccccc12 [Compound 12, N′-(Naphthalen-1-ylmethylene)-2-(2-(propylthio)-1H-benzo[d]imidazol-1-yl)acetohydrazide]
	38.1%	inactive	CCCSc1nc2ccccc2n1CC(=O)NN=Cc1ccc(OC)c(OC)c1 [Compound 13, N′-(3,4-Dimethoxybenzylidene)-2-(2-(propylthio)-1H-benzo[d]imidazol-1-yl)acetohydrazide]
	20.8%	inactive	CCCSc1nc2ccccc2n1CC(=O)NN=Cc1ccc(O)cc1O [Compound 14, N′-(2,4-Dihydroxybenzylidene)-2-(2-(propylthio)-1H-benzo[d]imidazol-1-yl)acetohydrazide]
14.5 ± 1.05 µM	91.2%		CCCSc1nc2ccccc2n1CC(=O)NN=Cc1ccc(OC)cc1OC [Compound 15, N′-(2,4-Dimethoxybenzylidene)-2-(2-(propylthio)-1H-benzo[d]imidazol-1-yl)acetohydrazide]
	5.6%	inactive	CCCSc1nc2ccccc2n1CC(=O)NN=Cc1ccc(N(CC)CC)cc1 [Compound 16, N′-(4-(Diethylamino)benzylidene)-2-(2-(propylthio)-1H-benzo[d]imidazol-1-yl)acetohydrazide]
31.4 ± 2.29 µM	90.7%	least active inhibitors	CCCSc1nc2ccccc2n1CC(=O)NN=Cc1cccc(O)c1 [Compound 17, N′-(3-Hydroxybenzylidene)-2-(2-(propylthio)-1H-benzo[d]imidazol-1-yl)acetohydrazide]
22.7 ± 1.37 µM	81.2%		CCCSc1nc2ccccc2n1CC(=O)NN=Cc1ccc(O)c(OC)c1 [Compound 18, N′-(4-Hydroxy-3-methoxybenzylidene)-2-(2-(propylthio)-1H-benzo[d]imidazol-1-yl)acetohydrazide]
	13.6%	inactive	CCCSc1nc2ccccc2n1CC(=O)NN=Cc1ccc(C)cc1 [Compound 19, N′-(4-Methylbenzylidene)-2-(2-(propylthio)-1H-benzo[d]imidazol-1-yl)acetohydrazide]
45.5 ± 2.07 µM	67.7%	least active inhibitors	CCCSc1nc2ccccc2n1CC(=O)NN=Cc1ccc(O)c(OCC)c1 [Compound 20, N′-(3-Ethoxy-4-hydroxybenzylidene)-2-(2-(propylthio)-1H-benzo[d]imidazol-1-yl)acetohydrazide]
	42.2%	inactive	CCCSc1nc2ccccc2n1CC(=O)NN=Cc1ccc(C=O)cc1 [Compound 21, N′-(4-Formylbenzylidene)-2-(2-(propylthio)-1H-benzo[d]imidazol-1-yl)acetohydrazide]
24.7 ± 3 µM	90.1%		CCCSc1nc2ccccc2n1CC(=O)NN=Cc1ccc(C(C)C)cc1 [Compound 22, N′-(4-Isopropylbenzylidene)-2-(2-(propylthio)-1H-benzo[d]imidazol-1-yl)acetohydrazide]
24.8 ± 1.24 µM	89.8%		CCCSc1nc2ccccc2n1CC(=O)NN=Cc1cccs1 [Compound 23, 2-(2-(Propylthio)-1H-benzo[d]imidazol-1-yl)-N′-(thiophen-2-ylmethylene)acetohydrazide]
162 ± 3.54 µM	84.3%	least active inhibitors	CCCSc1nc2ccccc2n1CC(=O)NN=Cc1ccc(F)cc1 [Compound 24, N′-(4-Fluorobenzylidene)-2-(2-(propylthio)-1H-benzo[d]imidazol-1-yl)acetohydrazide]
193 ± 3.24 µM	57.0%	least active inhibitors	CCCSc1nc2ccccc2n1CC(=O)NN=Cc1ccco1 [Compound 25, N′-(Furan-2-ylmethylene)-2-(2-(propylthio)-1H-benzo[d]imidazol-1-yl)acetohydrazide]
166 ± 1.61 µM	67.8%	least active inhibitors	CCCSc1nc2ccccc2n1CC(=O)NN=Cc1ccc(C)o1 [Compound 26, N′-((5-Methylfuran-2-yl)methylene)-2-(2-(propylthio)-1H-benzo[d]imidazol-1-yl)acetohydrazide]
55.6 ± 4.25 µM	89.6%	least active inhibitors	CCCSc1nc2ccccc2n1CC(=O)NN=Cc1cccc(OC)c1OC [Compound 27, N′-(2,3-Dimethoxybenzylidene)-2-(2-(propylthio)-1H-benzo[d]imidazol-1-yl)acetohydrazide]
42.1 ± 1.39 µM	67.6%	least active inhibitors	CCCSc1nc2ccccc2n1CC(=O)NN=Cc1c(Cl)cccc1Cl [Compound 28, N′-(2,6-Dichlorobenzylidene)-2-(2-(propylthio)-1H-benzo[d]imidazol-1-yl)acetohydrazide]
21 ± 0.74 µM	88.2%		CCCSc1nc2ccccc2n1CC(=O)NN=Cc1ccccc1OC [Compound 29, N′-(2-Methoxybenzylidene)-2-(2-(propylthio)-1H-benzo[d]imidazol-1-yl)acetohydrazide]
